Reference: publication PMC5340577 (Nuclear medicine and biology, 2016)

What was measured:
[1] = humans; cited from earlier work
[2] = Stability of Re complex in aqueous solution by ^1H NMR; type: physicochemical; settings: D2O, pH 7

stability in aqueous solution (^1H NMR signals) [2] | Compound | clearance as percent of that of ^131I-OIH [1]
– | O=C([O-])CN=C([O-])CN=C([O-])CN=C([O-])C[S-].[O-2].[Tc+4] [^99mTc-MAG3, ^99mTc-mercaptoacetyltriglycine] | ~ 60%
no change for weeks | Na[Re(CO)3(FEDA)] [Re-4] | –
